Measured values from US6846182B1, “Dental bleaching composition and method” (priority 1996, dated 2005).

Experimental: Fluoride has been used in dentistry to reduce sensitivity for many years. Often, when the root surface of teeth is exposed to the oral cavity due to gingival recession, these teeth become sensitive to hot, cold and sometimes sweets. […] This post bleaching pain usually has an onset of about 2 hours post-bleaching and lasts for 2 or more days.

Substance: neutral sodium fluoride
- post-bleaching pain level (applied 5 minutes post bleaching): often diminished
- post-bleaching sensitivity (applied at least 10 minutes after bleaching is completed): almost completely eliminated
